From article PMC10746543, “Design principles for cyclin K molecular glue degraders” (Nature Chemical Biology, 2023)
“And” between values parts separate entries of the source, which are not always exact repeats. Equal values may be shown once. Read-outs that look alike come from different tables or passages of the source.

What was measured:
[1] = target: T1, CDK13 (Homo sapiens, UniProt Q14004+Q16531); test: Label-free quantitative mass spectrometry in MDA-MB-231 cells, CDK13; type: cell-based
T1 construct: endogenous in cells; host or cells: MDA-MB-231
Method in brief: (§1)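 MDA-MB-231 cells treated 5 h with 1 µM cyclin K degrader or DMSO. Lysates digested with LysC and trypsin, then analysed by label-free diaPASEF LC-MS on a TimsTOF Pro2 with directDIA search and MS1 precursor quantification. Protein abundances scaled and analysed with limma.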

[2] = target: T2, CDK2–cyclin A (Homo sapiens, UniProt P24941); test: Lanthascreen kinase binding assay, CDK2
T2 construct: purchased Thermo Fisher
Method: Lanthascreen experiments were performed using commercially available reagents (Thermo Fisher) and according to the manufacturer’s instructions.

[3] = target: T3, CDK12–cyclin K and DDB1 (Homo sapiens, UniProt Q16531+Q9NYV4, K965R); test: TR-FRET ternary complex formation assay (compound titration); type: binding
T3 construct: His6–CDK12 (a.a. 713–1,052); full-length or beta-propeller B domain deletion (ΔBPB: a.a. 396–705 deleted) constructs of His6–DDB1ΔBPB, StrepII–Avi–DDB1, or His6–Spy–DDB1; made in house; host or cells: Trichoplusia ni High Five insect cells (baculovirus)
T3 sequence (Q9NYV4 713-1052 K965R): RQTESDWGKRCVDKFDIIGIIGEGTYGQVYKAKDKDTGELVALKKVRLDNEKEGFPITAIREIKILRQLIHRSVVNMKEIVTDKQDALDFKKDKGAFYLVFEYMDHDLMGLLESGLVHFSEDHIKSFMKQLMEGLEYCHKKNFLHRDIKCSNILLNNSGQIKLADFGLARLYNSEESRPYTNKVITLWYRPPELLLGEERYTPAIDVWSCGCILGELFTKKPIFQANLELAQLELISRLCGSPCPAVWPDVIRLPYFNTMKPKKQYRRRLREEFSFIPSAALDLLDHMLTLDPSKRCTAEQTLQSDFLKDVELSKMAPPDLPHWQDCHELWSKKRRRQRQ
T3 sequence (O75909 1-267 partner): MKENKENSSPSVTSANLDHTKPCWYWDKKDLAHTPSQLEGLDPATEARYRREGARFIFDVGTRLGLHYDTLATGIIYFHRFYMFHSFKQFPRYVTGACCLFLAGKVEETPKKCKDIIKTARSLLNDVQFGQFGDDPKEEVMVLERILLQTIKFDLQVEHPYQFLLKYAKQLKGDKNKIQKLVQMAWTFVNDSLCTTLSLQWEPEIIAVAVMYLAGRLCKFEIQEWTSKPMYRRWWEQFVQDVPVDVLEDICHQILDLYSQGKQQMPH
T3 sequence (Q16531 whole entry): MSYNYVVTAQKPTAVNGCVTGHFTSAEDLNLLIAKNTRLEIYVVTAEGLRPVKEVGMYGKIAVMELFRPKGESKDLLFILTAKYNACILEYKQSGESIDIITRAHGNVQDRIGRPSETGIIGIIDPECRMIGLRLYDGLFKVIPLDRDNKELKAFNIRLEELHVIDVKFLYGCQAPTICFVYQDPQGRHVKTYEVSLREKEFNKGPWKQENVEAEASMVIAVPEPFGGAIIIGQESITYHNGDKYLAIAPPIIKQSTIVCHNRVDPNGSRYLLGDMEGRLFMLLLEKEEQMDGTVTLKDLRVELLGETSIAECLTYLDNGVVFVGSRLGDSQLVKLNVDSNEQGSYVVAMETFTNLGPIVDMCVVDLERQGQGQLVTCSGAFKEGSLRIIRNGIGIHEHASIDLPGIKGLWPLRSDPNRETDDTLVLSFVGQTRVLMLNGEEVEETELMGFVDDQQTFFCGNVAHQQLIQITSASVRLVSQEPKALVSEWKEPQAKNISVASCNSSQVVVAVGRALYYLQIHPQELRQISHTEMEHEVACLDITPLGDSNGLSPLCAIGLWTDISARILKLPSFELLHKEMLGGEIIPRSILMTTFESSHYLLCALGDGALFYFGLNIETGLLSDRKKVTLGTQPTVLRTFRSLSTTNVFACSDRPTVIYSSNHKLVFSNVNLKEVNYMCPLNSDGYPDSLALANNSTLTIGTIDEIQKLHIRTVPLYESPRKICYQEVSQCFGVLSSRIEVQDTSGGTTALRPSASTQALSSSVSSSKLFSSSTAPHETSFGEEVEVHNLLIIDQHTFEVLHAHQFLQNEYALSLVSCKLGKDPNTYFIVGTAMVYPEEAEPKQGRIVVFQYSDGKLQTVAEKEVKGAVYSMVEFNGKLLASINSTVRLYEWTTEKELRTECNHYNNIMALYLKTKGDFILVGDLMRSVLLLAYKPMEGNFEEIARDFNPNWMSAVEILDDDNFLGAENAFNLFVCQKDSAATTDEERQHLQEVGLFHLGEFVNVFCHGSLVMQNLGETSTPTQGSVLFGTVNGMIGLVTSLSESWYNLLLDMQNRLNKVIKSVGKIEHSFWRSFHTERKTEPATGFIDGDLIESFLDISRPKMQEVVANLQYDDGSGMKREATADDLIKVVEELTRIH
Method in brief: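 Delayed (70 μs) time-resolved read; FRET computed as 520 nm over 490 nm emission.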

[4] = target: T4, CDK12 (Homo sapiens, UniProt Q16531+Q9NYV4); test: Label-free quantitative mass spectrometry in MDA-MB-231 cells, CDK12; type: cell-based
T4 construct: endogenous in cells; host or cells: MDA-MB-231
T4 sequence (Q9NYV4 whole entry): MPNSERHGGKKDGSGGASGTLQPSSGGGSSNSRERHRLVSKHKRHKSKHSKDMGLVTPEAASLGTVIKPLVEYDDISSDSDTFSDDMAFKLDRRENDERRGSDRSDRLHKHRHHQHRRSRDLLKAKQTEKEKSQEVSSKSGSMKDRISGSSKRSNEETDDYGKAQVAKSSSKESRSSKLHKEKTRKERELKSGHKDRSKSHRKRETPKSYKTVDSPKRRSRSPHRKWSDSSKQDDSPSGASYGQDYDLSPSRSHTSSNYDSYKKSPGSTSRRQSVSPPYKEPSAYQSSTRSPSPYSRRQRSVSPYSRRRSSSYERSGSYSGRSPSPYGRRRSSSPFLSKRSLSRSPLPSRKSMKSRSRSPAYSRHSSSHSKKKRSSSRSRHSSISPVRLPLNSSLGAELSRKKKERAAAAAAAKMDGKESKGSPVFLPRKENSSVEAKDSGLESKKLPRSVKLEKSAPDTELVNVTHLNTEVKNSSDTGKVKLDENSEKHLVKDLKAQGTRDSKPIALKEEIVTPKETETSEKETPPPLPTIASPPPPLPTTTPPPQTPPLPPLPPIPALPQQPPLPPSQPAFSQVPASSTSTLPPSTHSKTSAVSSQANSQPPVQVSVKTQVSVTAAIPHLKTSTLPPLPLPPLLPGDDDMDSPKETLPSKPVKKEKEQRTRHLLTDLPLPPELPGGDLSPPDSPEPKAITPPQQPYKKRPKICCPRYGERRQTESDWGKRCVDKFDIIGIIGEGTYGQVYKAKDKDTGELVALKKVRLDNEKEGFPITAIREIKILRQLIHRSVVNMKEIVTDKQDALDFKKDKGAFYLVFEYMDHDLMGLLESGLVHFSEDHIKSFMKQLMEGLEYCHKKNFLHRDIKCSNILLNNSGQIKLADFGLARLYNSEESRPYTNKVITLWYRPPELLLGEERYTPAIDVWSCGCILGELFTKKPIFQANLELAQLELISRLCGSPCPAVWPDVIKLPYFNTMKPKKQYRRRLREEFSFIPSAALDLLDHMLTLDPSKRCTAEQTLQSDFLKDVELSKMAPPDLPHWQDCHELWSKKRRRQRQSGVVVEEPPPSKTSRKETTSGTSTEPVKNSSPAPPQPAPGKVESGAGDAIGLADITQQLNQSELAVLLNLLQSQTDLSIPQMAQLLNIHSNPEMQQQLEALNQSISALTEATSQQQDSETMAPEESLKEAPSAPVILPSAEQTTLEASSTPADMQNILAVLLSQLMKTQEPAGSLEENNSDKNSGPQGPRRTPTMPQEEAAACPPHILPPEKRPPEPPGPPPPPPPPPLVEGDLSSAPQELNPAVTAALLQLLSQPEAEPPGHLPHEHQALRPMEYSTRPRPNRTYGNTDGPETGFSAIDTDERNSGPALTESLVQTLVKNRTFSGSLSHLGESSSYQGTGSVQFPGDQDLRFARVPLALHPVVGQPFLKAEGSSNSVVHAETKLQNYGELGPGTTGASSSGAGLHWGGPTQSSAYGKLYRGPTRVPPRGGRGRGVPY
T4 sequence (O75909 whole entry partner): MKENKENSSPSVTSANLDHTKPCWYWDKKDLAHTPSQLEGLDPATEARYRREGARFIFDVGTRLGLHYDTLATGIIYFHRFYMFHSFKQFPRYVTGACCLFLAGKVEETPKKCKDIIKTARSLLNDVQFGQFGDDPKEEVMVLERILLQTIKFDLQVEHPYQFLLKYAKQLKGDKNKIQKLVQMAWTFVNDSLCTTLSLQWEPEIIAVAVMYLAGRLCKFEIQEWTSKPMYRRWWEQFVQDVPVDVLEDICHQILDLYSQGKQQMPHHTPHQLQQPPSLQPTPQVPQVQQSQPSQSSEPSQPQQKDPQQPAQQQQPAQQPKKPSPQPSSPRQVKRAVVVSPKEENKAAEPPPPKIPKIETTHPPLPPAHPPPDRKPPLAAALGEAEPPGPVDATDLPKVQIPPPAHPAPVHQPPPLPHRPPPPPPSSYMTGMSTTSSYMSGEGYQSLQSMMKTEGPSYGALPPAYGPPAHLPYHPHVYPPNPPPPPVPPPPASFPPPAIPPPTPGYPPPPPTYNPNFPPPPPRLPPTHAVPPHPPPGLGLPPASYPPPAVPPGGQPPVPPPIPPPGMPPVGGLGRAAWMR
T4 sequence (Q16531 2-1140 limits assumed): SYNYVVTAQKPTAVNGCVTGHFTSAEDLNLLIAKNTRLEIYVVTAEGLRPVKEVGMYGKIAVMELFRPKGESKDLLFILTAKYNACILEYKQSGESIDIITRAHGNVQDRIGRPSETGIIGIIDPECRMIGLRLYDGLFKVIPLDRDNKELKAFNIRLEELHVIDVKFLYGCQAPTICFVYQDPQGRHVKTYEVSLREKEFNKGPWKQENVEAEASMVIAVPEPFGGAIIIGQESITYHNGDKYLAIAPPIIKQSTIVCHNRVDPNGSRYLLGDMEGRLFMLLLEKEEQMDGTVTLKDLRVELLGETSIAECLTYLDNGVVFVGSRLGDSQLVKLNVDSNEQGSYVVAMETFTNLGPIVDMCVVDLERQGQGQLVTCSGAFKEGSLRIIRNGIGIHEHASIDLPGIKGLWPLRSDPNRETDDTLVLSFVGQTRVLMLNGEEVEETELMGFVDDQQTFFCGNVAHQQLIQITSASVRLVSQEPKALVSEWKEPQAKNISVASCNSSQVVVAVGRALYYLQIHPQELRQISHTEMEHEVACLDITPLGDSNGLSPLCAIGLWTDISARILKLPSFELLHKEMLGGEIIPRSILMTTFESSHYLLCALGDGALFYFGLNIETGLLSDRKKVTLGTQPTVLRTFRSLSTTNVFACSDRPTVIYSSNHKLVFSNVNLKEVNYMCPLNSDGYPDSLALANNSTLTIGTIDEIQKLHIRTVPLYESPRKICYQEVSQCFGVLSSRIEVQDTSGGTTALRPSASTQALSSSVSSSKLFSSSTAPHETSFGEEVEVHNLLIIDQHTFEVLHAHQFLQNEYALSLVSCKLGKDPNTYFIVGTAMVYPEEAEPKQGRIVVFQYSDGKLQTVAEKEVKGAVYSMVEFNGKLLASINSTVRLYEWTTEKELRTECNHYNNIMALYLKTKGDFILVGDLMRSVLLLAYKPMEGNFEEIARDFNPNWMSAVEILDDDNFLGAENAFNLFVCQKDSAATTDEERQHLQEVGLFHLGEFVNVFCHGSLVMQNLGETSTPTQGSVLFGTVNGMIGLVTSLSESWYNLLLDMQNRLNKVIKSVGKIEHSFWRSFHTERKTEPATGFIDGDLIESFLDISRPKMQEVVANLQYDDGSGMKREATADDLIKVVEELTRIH
Method in brief: as §1

[5] = label-free quantitative MS, replicate values
[6] = normalised to DMSO = 1, replicate values

SMILES: CC(C)c1nn(-c2c(Cl)cccc2Cl)c2nc(Cc3ccc(OCCO)cc3)[nH]c(=O)c12 [compound 21195]
- CDK13 peptide count [1, 5]: 262.248 and 170.145
- CDK13 peptide count (DMSO-normalised) [1, 6]: 0.3901 and 0.2615
- Lanthascreen signal, sheet CDK2 ([2]; Compound 0.038147 nM, raw replicates, experiment r48-r58): 0.01114 and 0.01116
- Lanthascreen signal, sheet CDK2 ([2]; Compound 0.038147 nM, raw replicates, experiment r72-r82): 0.02274 and 0.02249 and 0.02111
- Lanthascreen signal, sheet CDK2 ([2]; Compound 0.152588 nM, raw replicates, experiment r48-r58): 0.01418 and 0.01279
- Lanthascreen signal, sheet CDK2 ([2]; Compound 0.152588 nM, raw replicates, experiment r72-r82): 0.0215 and 0.0211 and 0.01988
- Lanthascreen signal, sheet CDK2 ([2]; Compound 0.610352 nM, raw replicates, experiment r48-r58): 0.01088 and 0.01046
- Lanthascreen signal, sheet CDK2 ([2]; Compound 0.610352 nM, raw replicates, experiment r72-r82): 0.01525 and 0.01498 and 0.01532
- Lanthascreen signal, sheet CDK2 ([2]; Compound 1.02544 nM, raw replicates, experiment r1-r11): 0.008805 and 0.007055
- Lanthascreen signal, sheet CDK2 ([2]; Compound 3.15521 nM, raw replicates, experiment r1-r11): 0.006794 and 0.006701
- Lanthascreen signal, sheet CDK2 ([2]; Compound 4.57247 nM, experiment r25-r34): 0.009774
- Lanthascreen signal, sheet CDK2 ([2]; Compound 9.46563 nM, raw replicates, experiment r1-r11): 0.005367 and 0.004658
- Lanthascreen signal, sheet CDK2 ([2]; Compound 9.76563 nM, raw replicates, experiment r48-r58): 0.004922 and 0.004545
- Lanthascreen signal, sheet CDK2 ([2]; Compound 9.76563 nM, raw replicates, experiment r72-r82): 0.008551 and 0.007922 and 0.008628
- Lanthascreen signal, sheet CDK2 ([2]; Compound 13.7174 nM, experiment r25-r34): 0.006843
- Lanthascreen signal, sheet CDK2 ([2]; Compound 31.5521 nM, raw replicates, experiment r1-r11): 0.003961 and 0.003619
- Lanthascreen signal, sheet CDK2 ([2]; Compound 39.0625 nM, raw replicates, experiment r48-r58): 0.004317 and 0.004069
- Lanthascreen signal, sheet CDK2 ([2]; Compound 39.0625 nM, raw replicates, experiment r72-r82): 0.008233 and 0.00742 and 0.007049
- Lanthascreen signal, sheet CDK2 ([2]; Compound 41.1523 nM, experiment r25-r34): 0.005858
- Lanthascreen signal, sheet CDK2 ([2]; Compound 99.3891 nM, raw replicates, experiment r1-r11): 0.003218 and 0.002962
- Lanthascreen signal, sheet CDK2 ([2]; Compound 123.457 nM, experiment r25-r34): 0.005407
- Lanthascreen signal, sheet CDK2 ([2]; Compound 156.25 nM, raw replicates, experiment r48-r58): 0.004055 and 0.004446
- Lanthascreen signal, sheet CDK2 ([2]; Compound 156.25 nM, raw replicates, experiment r72-r82): 0.007121 and 0.006977 and 0.007061
- Lanthascreen signal, sheet CDK2 ([2]; Compound 315.521 nM, raw replicates, experiment r1-r11): 0.003513 and 0.004201
- Lanthascreen signal, sheet CDK2 ([2]; Compound 370.37 nM, experiment r25-r34): 0.005303
- Lanthascreen signal, sheet CDK2 ([2]; Compound 625 nM, raw replicates, experiment r48-r58): 0.004058 and 0.004497
- Lanthascreen signal, sheet CDK2 ([2]; Compound 625 nM, raw replicates, experiment r72-r82): 0.007299 and 0.007212 and 0.007465
- Lanthascreen signal, sheet CDK2 ([2]; Compound 2500 nM, raw replicates, experiment r48-r58): 0.004147 and 0.004489
- Lanthascreen signal, sheet CDK2 ([2]; Compound 2500 nM, raw replicates, experiment r72-r82): 0.007107 and 0.006983 and 0.006617
- Lanthascreen signal, sheet CDK2 ([2]; Compound 3155.21 nM, raw replicates, experiment r1-r11): 0.004846 and 0.003852
- Lanthascreen signal, sheet CDK2 ([2]; Compound 3333.33 nM, experiment r25-r34): 0.004706
- Lanthascreen signal, sheet CDK2 ([2]; Compound 10000 nM, experiment r25-r34): 0.005121
- Lanthascreen signal, sheet CDK2 ([2]; Compound 10000 nM, raw replicates, experiment r48-r58): 0.003844 and 0.004325
- Lanthascreen signal, sheet CDK2 ([2]; Compound 10000 nM, raw replicates, experiment r72-r82): 0.007331 and 0.007604 and 0.008348
- Lanthascreen signal, sheet CDK2 ([2]; Compound 10002 nM, raw replicates, experiment r1-r11): 0.002963 and 0.004615
- IC50 ([2]; Supplementary Table 2, read-out: Lanthascreen IC50 [nM] CDK2): 3 nM
- TR-FRET signal ([3]; compound concentration 0.468 nM): 0.2628 and 0.2699 and 0.216 and 0.239 and 0.2342 and 0.2245
- TR-FRET signal ([3]; compound concentration 2.16 nM): 0.3464 and 0.3831 and 0.355 and 0.3843 and 0.3684 and 0.3664
- TR-FRET signal ([3]; compound concentration 3.6 nM): 0.5968 and 0.6945 and 0.6556 and 0.7072 and 0.6869 and 0.6829
- TR-FRET signal ([3]; compound concentration 7.92001 nM): 1.121 and 1.282 and 1.315 and 1.383 and 1.34 and 1.348
- TR-FRET signal ([3]; compound concentration 15.84 nM): 1.693 and 2.27 and 2.427 and 2.5504 and 2.497
- TR-FRET signal ([3]; compound concentration 30.96 nM): 2.9489 and 3.238 and 3.271 and 3.348 and 3.319 and 3.3062
- TR-FRET signal ([3]; compound concentration 62.6401 nM): 3.288 and 3.494 and 3.577 and 3.452 and 3.519 and 3.526
- TR-FRET signal ([3]; compound concentration 125.28 nM): 3.346 and 3.624 and 3.589 and 3.472 and 3.591 and 3.561
- TR-FRET signal ([3]; compound concentration 244.8 nM): 3.392 and 3.7057 and 3.68 and 3.58 and 3.638 and 3.662
- TR-FRET signal ([3]; compound concentration 993.601 nM): 3.425 and 3.678 and 3.687 and 3.61 and 3.695 and 3.669
- TR-FRET signal ([3]; compound concentration 2001.6 nM): 3.544 and 3.666 and 3.468 and 3.558 and 3.691 and 3.74
- EC50 ([3]; in vitro complex formation, 50 nM CDK12–cyclin K, 100 nM DDB1, text and figures, read-out: TR-FRET EC50): 12 ± 0.4 nM
- EC50 ([3]; sheet MOESM7, read-out: log TR-FRET EC50 (converted)): 12 nM
- EC50 ([3]; source data sheet correlations, read-out: TR-FRET EC50): 12 nM
- CDK12 peptide count [4, 5]: 493.905 and 565.93
- CDK12 peptide count (DMSO-normalised) [4, 6]: 0.5487 and 0.5845
